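At the GI50, growth is halved. TGI denotes the concentration required for complete inhibition of growth.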
Legend:
Test in all cases: DTP human tumour cell line panel, 384-well format
SNB-19 CNS = system: SNB-19 CNS
SK-MEL-28 melanoma = system: SK-MEL-28 melanoma
SF-539 CNS = system: SF-539 CNS
NCI/ADR-RES ovarian = system: NCI/ADR-RES ovarian
BT-549 breast = system: BT-549 breast
TK-10 renal = system: TK-10 renal
LOX IMVI melanoma = system: LOX IMVI melanoma
SN12C renal = system: SN12C renal
HCC-2998 colon = system: HCC-2998 colon
OVCAR-5 ovarian = system: OVCAR-5 ovarian
NCI-H23 lung = system: NCI-H23 lung
NCI-H522 lung = system: NCI-H522 lung
KM12 colon = system: KM12 colon
HL-60(TB) leukemia = system: HL-60(TB) leukemia
786-0 renal = system: 786-0 renal
A498 renal = system: A498 renal
HOP-92 NSCLC = system: HOP-92 NSCLC
IGROV1 ovarian = system: IGROV1 ovarian
SK-MEL-5 melanoma = system: SK-MEL-5 melanoma
MALME-3M melanoma = system: MALME-3M melanoma
OVCAR-8 ovarian = system: OVCAR-8 ovarian
SNB-75 CNS = system: SNB-75 CNS
EKVX NSCLC = system: EKVX NSCLC
A549 NSCLC = system: A549 NSCLC
RXF 393 renal = system: RXF 393 renal
CCRF-CEM leukemia = system: CCRF-CEM leukemia
SF-268 CNS = system: SF-268 CNS
T-47D breast = system: T-47D breast
M14 melanoma = system: M14 melanoma
OVCAR-4 ovarian = system: OVCAR-4 ovarian
SW-620 colon = system: SW-620 colon
HCT-116 colon = system: HCT-116 colon
HT29 colon = system: HT29 colon
MDA-MB-435 melanoma = system: MDA-MB-435 melanoma
HOP-62 NSCLC = system: HOP-62 NSCLC
K-562 leukemia = system: K-562 leukemia
ACHN renal = system: ACHN renal
MDA-MB-468 breast = system: MDA-MB-468 breast
NCI-H460 NSCLC = system: NCI-H460 NSCLC
OVCAR-3 ovarian = system: OVCAR-3 ovarian
U251 glioblastoma = system: U251 glioblastoma
COLO 205 colon = system: COLO 205 colon
MOLT-4 leukemia = system: MOLT-4 leukemia
SK-OV-3 ovarian = system: SK-OV-3 ovarian
HCT-15 colon = system: HCT-15 colon
CAKI-1 renal = system: CAKI-1 renal
UACC-62 melanoma = system: UACC-62 melanoma

Cn1c(Nc2ccc(C(F)(F)F)cc2)nc2cc(Oc3ccnc(-c4ncc(C(F)(F)F)[nH]4)c3)ccc21
GI50 (SNB-19 CNS): 359 nM
TGI (SNB-19 CNS): 19800 nM
GI50 (SK-MEL-28 melanoma): 46 nM
TGI (SK-MEL-28 melanoma): 408 nM
GI50 (SF-539 CNS): 346 nM
TGI (SF-539 CNS): 7740 nM
GI50 (NCI/ADR-RES ovarian): 567 nM
TGI (NCI/ADR-RES ovarian): 2840 nM
GI50 (BT-549 breast): 182 nM
TGI (BT-549 breast): 11300 nM
GI50 (TK-10 renal): 89.6 nM
TGI (TK-10 renal): 11800 nM
GI50 (LOX IMVI melanoma): 54.7 nM
TGI (LOX IMVI melanoma): 1540 nM
GI50 (SN12C renal): 46.4 nM
TGI (SN12C renal): 11800 nM
GI50 (HCC-2998 colon): 88.3 nM
TGI (HCC-2998 colon): 5620 nM
GI50 (OVCAR-5 ovarian): 1430 nM
TGI (OVCAR-5 ovarian): 13100 nM
GI50 (NCI-H23 lung): 179 nM
TGI (NCI-H23 lung): 2330 nM
GI50 (NCI-H522 lung): 55.6 nM
TGI (NCI-H522 lung): 11000 nM
GI50 (KM12 colon): 734 nM
TGI (KM12 colon): 12500 nM
GI50 (HL-60(TB) leukemia): 38.6 nM
TGI (HL-60(TB) leukemia): 1070 nM
GI50 ([…]-0 renal): 615 nM
TGI (786-0 renal): 6250 nM
TGI (A498 renal): 12900 nM
GI50 (HOP-92 NSCLC): 584 nM
TGI (HOP-92 NSCLC): 6000 nM
GI50 (IGROV1 ovarian): 41 nM
TGI (IGROV1 ovarian): 11200 nM
GI50 (SK-MEL-5 melanoma): 70.4 nM
TGI (SK-MEL-5 melanoma): 617 nM
GI50 (MALME-3M melanoma): 14.4 nM
TGI (MALME-3M melanoma): 44.3 nM
GI50 (OVCAR-8 ovarian): 493 nM
TGI (OVCAR-8 ovarian): 10600 nM
GI50 (SNB-75 CNS): 71.1 nM
TGI (SNB-75 CNS): 13000 nM
GI50 (EKVX NSCLC): 983 nM
TGI (EKVX NSCLC): 4910 nM
GI50 (A549 NSCLC): 254 nM
TGI (A549 NSCLC): 12400 nM
GI50 (RXF 393 renal): 15.9 nM
TGI (RXF 393 renal): 348 nM
GI50 (CCRF-CEM leukemia): 231 nM
TGI (CCRF-CEM leukemia): 1170 nM
GI50 (SF-268 CNS): 387 nM
TGI (SF-268 CNS): 13300 nM
GI50 (T-47D breast): 274 nM
TGI (T-47D breast): 9060 nM
GI50 (M14 melanoma): 18.4 nM
TGI (M14 melanoma): 332 nM
GI50 (OVCAR-4 ovarian): 454 nM
TGI (OVCAR-4 ovarian): 11700 nM
GI50 (SW-620 colon): 873 nM
TGI (SW-620 colon): 12500 nM
GI50 (HCT-116 colon): 62.5 nM
TGI (HCT-116 colon): 3550 nM
GI50 (HT29 colon): 396 nM
TGI (HT29 colon): 13700 nM
GI50 (MDA-MB-435 melanoma): 47.6 nM
TGI (MDA-MB-435 melanoma): 5880 nM
GI50 (HOP-62 NSCLC): 608 nM
TGI (HOP-62 NSCLC): 11400 nM
GI50 (K-562 leukemia): 630 nM
TGI (K-562 leukemia): 2130 nM
GI50 (ACHN renal): 20.5 nM
TGI (ACHN renal): 11300 nM
GI50 (MDA-MB-468 breast): 74.1 nM
TGI (MDA-MB-468 breast): 825 nM
GI50 (NCI-H460 NSCLC): 237 nM
TGI (NCI-H460 NSCLC): 10300 nM
GI50 (OVCAR-3 ovarian): 158 nM
TGI (OVCAR-3 ovarian): 2460 nM
GI50 (U251 glioblastoma): 97.9 nM
TGI (U251 glioblastoma): 12700 nM
GI50 (COLO 205 colon): 122 nM
TGI (COLO 205 colon): 1420 nM
GI50 (MOLT-4 leukemia): 55.3 nM
TGI (MOLT-4 leukemia): 197 nM
GI50 (SK-OV-3 ovarian): 12.7 nM
TGI (SK-OV-3 ovarian): 12500 nM
GI50 (HCT-15 colon): 53.7 nM
TGI (HCT-15 colon): 10300 nM
GI50 (CAKI-1 renal): 15.7 nM
TGI (CAKI-1 renal): 12400 nM
GI50 (UACC-62 melanoma): 27 nM
TGI (UACC-62 melanoma): 462 nM

Source: PubChem BioAssay (NCI)
